pIC50: −log10 of the molar value.

The target of the assay is T1, HLE (Homo sapiens, UniProt P08246).
T1 construct: Purified elastase from human white blood cells; from tissue; host or cells: human white blood cells (purified enzyme)
T1 sequence (P08246 30-247 limits assumed): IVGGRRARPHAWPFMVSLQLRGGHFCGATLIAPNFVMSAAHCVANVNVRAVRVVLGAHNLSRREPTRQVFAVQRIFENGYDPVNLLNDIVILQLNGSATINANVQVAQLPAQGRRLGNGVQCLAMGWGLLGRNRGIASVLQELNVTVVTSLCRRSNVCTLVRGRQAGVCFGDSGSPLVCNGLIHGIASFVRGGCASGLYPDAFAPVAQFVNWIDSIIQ
Description: Enzyme assay for inhibition of HLE (human leukocyte elastase). The note with it: purified elastase from human white blood cells, 10 nM; 10 minute preincubation; 0.35 mM MeO-succinyl-L-alanyl-L-alanyl-L-prolyl-L-valine-p-nitroanilide; pH 7.6; 10% dimethylsulfoxide; 410 nm; read-out: IC50 values against HLE. The class given is biochemical. As to the method:
ENZYME ASSAY FOR INHIBITION OF HLE
ENZYME: Purified elastase from human white blood cells.
MeO-succinyl-L-alanyl-L-alanyl-L-prolyl-L-valine-
10 mM phosphate buffer (pH 7.6)
The enzyme activity was determined by monitoring the increase in absorbance at 410 nm caused by the hydrolysis of chromogenic substrates. Inhibition of enzyme by the compounds described were determined after a 10 minute preincubation with the enzyme in the reaction mixture minus substrate. Reaction was initiated by the addition of substrate. The concentration of human leukocyte elastase used for assay was at 10 nM.
The pIC50 is −log10 of the IC50, conventionally taken in molar units. Turning to `CO[C@H]1C(=O)N2C(C(=O)N3CCN(C)CC3)=C(C)C3(CC34CCCC4)S(=O)(=O)C12` (stereo partly shown) [Compound 3], the pIC50 was 7.61. For `CO[C@H]1C(=O)N2C(C(=O)N3CCN(CC(=O)O)CC3)=C(C)C3(CC34CCCC4)S(=O)(=O)C12` (stereo partly shown) [Compound 4], the negative logarithm of the IC50 (pIC50) was 6.86. `CO[C@H]1C(=O)N2C(C(=O)N3CCC(C(=O)O)CC3)=C(C)C3(CC34CCCC4)S(=O)(=O)C12` (stereo partly shown) [Compound 5]: the pIC50 is 7.24. Consider `CO[C@H]1C(=O)N2C(C(=O)N3CCN(C)CC3)=C(C)C3(CC34CCCCC4)S(=O)(=O)C12` (stereo partly shown) [Compound 7], for which the pIC50 was 8.19.

Regarding `CO[C@H]1C(=O)N2C(C(=O)N3CCN(CC(=O)OC(C)(C)C)CC3)=C(C)C3(CC34CCCCC4)S(=O)(=O)C12` (stereo partly shown) [Compound 8], the pIC50 is 8.08. `CO[C@H]1C(=O)N2C(C(=O)N3CCN(CC(=O)O)CC3)=C(C)C3(CC34CCCCC4)S(=O)(=O)C12` (stereo partly shown) [Compound 9]: the negative-log IC50 (pIC50) is 7.57. On to `CO[C@H]1C(=O)N2C(C(=O)N3CCN(C)CC3)=C(C)C3(CC34CCCCC4)S(=O)(=O)C12` (stereo partly shown) [Compound 10], for which the pIC50 is 8.08.

Consider `CO[C@H]1C(=O)N2C(C(=O)OC(C)(C)C)=C(COC(C)=O)C3(CC34CCCC4)S(=O)(=O)C12` (stereo partly drawn) [Compound 11, t-Butyl-7α-methoxy-2-spiro(2'-spirocyclopentyl)cyclopropyl-3-acetoxymethyl-3-cephem-4-carboxylate-1,1-dioxide], for which the pIC50 was 8.04. Under `CO[C@H]1C(=O)N2C(C(=O)OC(C)(C)C)=C(CSc3nc(=O)c(O)nn3C)C3(CC34CCCC4)S(=O)(=O)C12` (stereo partly shown) [Compound 12] stands 7.82. Under `CO[C@H]1C(=O)N2C(C(=O)OC(C)(C)C)=C(CSc3ccccn3)C3(CC34CCCC4)S(=O)(=O)C12` (stereo partly shown) [Compound 13] stands 8.03; under `CO[C@H]1C(=O)N2C(C(=O)OC(C)(C)C)=C(CSc3nnnn3C)C3(CC34CCCC4)S(=O)(=O)C12` (stereo partly shown) [Compound 14], 7.82.

As for `CO[C@H]1C(=O)N2C(C(=O)OC(C)(C)C)=C(CSc3nnc(C)s3)C3(CC34CCCC4)S(=O)(=O)C12` (stereo partly shown) [Compound 15], the pIC50 is 7.99.

As for `CO[C@H]1C(=O)N2C(C(=O)N3CCCCC3)=C(CSc3nc(=O)c(O)nn3C)C3(CC34CCCC4)S(=O)(=O)C12` (stereo partly shown) [Compound 16], the pIC50 was 7.49. In the case of `CC1=C(C(=O)N2CCC(C(=O)OC(C)(C)C)CC2)N2C(=O)CC2S(=O)(=O)C12CC21CCCC1` (stereo not shown) [Compound 17], the pIC50 is 6.06.

`CO[C@H]1C(=O)N2C(C(C)=O)=C(C)C3(CC34CCCC4)S(=O)(=O)C12` (stereo partly shown) [Compound 18]: the pIC50 is 7.97. For the compound `CON=C(C)C1=C(C)C2(CC23CCCC3)S(=O)(=O)C2[C@@H](OC)C(=O)N12` (stereo partly shown) [Compound 19], the pIC50 was 7.09.

As for `CO[C@H]1C(=O)N2C(C(=O)N3CCC(C(N)=O)CC3)=C(C)C3(CC34CCCC4)S(=O)(=O)C12` (stereo partly shown) [Compound 20], the pIC50 was 8.08.

As to `CO[C@H]1C(=O)N2C(C(=O)c3ccccc3)=C(C)C3(CC34CCCC4)S(=O)(=O)C12` (stereo partly shown) [Compound 21], the pIC50 is 8.41. Under `CC1=C(C(=O)OC(c2ccccc2)c2ccccc2)N2C(=O)CC2S(=O)(=O)C12CC21CCCC1` (stereo not shown) [Compound 22, benzhydryl 7,7-dihydro-2-spiro(2'-spirocyclopentyl)-cyclopropyl-3-methyl-3-cephem-4-carboxylate-1,1-dioxide] stands 6.32; under `COC1C(=O)N2C(C(=O)N(C)CC(=O)O)=C(C)C3(CC34CCCC4)S(=O)(=O)C12` (stereo not shown) [Compound 23], 7.12; under `CO[C@H]1C(=O)N2C(C(=O)N3CCC(C(=O)O)CC3)=C(CSc3nc(=O)c(O)nn3C)C3(CC34CCCC4)S(=O)(=O)C12` (stereo partly shown) [Compound 24], 7.47. As for `CO[C@H]1C(=O)N2C(C(=O)N3CCN(C)CC3)=C(C)C3(CC34CCCC4)S(=O)(=O)C12` (stereo partly shown) [drawing 6], the pIC50 is 7.56.

Values taken from patent US5439904A, “2-spiro(2'-spirocycloalkyl)cyclopropyl cephalosporin sulfones as antiinflammatory and antigenerative agents” (Synphar Laboratories, Inc., priority 1993, dated 1995).
